Source: article PMC9166712, “Fluorescent probes for monitoring myeloperoxidase-derived hypochlorous acid: a comparative study” (Scientific Reports, 2022)
Read-outs that look alike come from different tables or passages of the source. Values belong to the compound of their own block, whether it stands above or below them.

Key:
MPO [1] = target: T1, MPO (Homo sapiens, UniProt P05164); assay: Z' parameter of the MPO/H2O2/Cl- assays; parameters: MPO from human neutrophils was obtained from Athens Research and Technology; purchased Athens Research and Technology (Athens, GA); host or cells: human neutrophils (natural source, donor material); details: both end-point (20 min) and kinetic (initial rates over 5 min) measurements
T1 sequence (P05164 279-745 limits assumed): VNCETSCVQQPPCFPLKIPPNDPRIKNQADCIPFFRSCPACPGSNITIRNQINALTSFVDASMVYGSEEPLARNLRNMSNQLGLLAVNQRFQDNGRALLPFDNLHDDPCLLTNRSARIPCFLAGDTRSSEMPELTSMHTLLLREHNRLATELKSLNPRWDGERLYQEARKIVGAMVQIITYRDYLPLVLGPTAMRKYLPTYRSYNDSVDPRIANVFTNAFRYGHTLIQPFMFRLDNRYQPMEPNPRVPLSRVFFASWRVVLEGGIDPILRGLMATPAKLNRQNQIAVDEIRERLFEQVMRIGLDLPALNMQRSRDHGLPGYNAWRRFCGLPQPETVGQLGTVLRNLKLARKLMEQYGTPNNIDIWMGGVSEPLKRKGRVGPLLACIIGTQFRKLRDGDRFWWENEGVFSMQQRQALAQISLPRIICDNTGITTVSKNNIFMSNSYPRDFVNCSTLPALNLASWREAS
T1 sequence (P05164 165-273 limits assumed): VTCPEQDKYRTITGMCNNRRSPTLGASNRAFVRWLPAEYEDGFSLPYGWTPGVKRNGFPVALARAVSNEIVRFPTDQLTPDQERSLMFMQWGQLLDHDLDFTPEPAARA
Protocol: The Z’ parameter is a measure of the assay quality in terms of its applicability to screen for bioactive compounds in cell-free or cell-based systems. The Z’ value of 0.5 or higher is generally accepted for the application of any assay for high throughput screening (HTS) of large chemical libraries. For the probes tested, the Z’ parameter was calculated on the basis of end-point measurements (fluorescence measured at a specific time of incubation) and kinetic measurements (rates of fluorescence increase), according to the Eq. 5. In the end-point measurements the Z’ values were calculated for the time of incubation equal to 20 min. To calculate the kinetic Z’ the initial rates of fluorescent product formation over 5 min were used. […] The lowest Z’ values around 0.7 were obtained for the NBD-TM probe. All the probes produced the Z’ values compatible with HTS applications.
The Z’ factor is a dimensionless coefficient and was calculated on the basis of data presented in Fig. 3 according to the equation below (Eq. 5)[57].5 Z^′=1-3S.D.control+-3S.D.control -/meancontrol +-meancontrol -, where S.D.control+ and S.D.control- are the standard deviation values, and meancontrol+ and meancontrol- are the mean values for the positive and negative control, respectively. The value of Z ' above 0.5 means good quality of the assay. The higher value of Z ' parameter means the better quality of the assay. This parameter cannot reach value higher than 1.

[2] = Competition kinetics of APC and APF with boronate reference for HOCl; assay type: physicochemical; details: FLBA (for APC) or CBA (for APF) 25 µM as reference, HOCl 5 µM, pH 7.4
Protocol: The rate constants of 1.8 × 10^4 M^−1s^−1 and 1.1 × 10^4 M^−1s^−1 were obtained for CBA and FLBA, respectively, which are typical values reported for this class of probes (Fig. 4a,b)[29],[36],[38],[45]. […] The highest rate constant was obtained for the NBD-TM probe which was equal to 1.0 × 10^7 M^−1s^−1. This rate constant was calculated using a second order rate constant of 1.8 × 10^4 M^−1s^−1 for the reference compound (CBA). The determined value of the rate constant for NBD-TM is consistent with the reaction rate constants reported for other thioethers with HOCl[41],[46].
(§1) Supplementary Figure S1. (a) Decrease of COH fluorescence in the incubation mixtures containing […]
(§2) in the presence of catalase (100 U/ml, black); in the absence of NaCl (green); in the absence of NaCl but in the presence of catalase (dark blue); in the absence of MPO (light blue); in th e absence of MPO but in the presence of catalase (pink). ( b), (c) same as (a) but instead of COH, incubation mixtures contained fluorescein and NBD -TSO, respectively.
Supplementary Figure S2. The relationship used to determine the rate constant between APF and HOCl (a), or […] and HOCl (b), according to the competition kinetic approach. The solid lines in the panel (a) and (b) represent the linear fittings to the equation […]
(2kFLBA+HOCl = 1,11 × 104 M-1s-1). […] The concentrations of COH and fluorescein were determined by LC/MS. […]

[3] = Stability of probe stock solutions; assay type: physicochemical; details: stock in acetonitrile or water/acetonitrile (1:1 v/v), 6 °C in the dark
Protocol: In the case of FLBA and APF, the two millimolar probe solutions were prepared in the water/acetonitrile mixture (1:1 v/v).

MPO [4] = target: T1, MPO; details: read-out: Azide anion IC50, MPO 1.2 nM, H2O2 10 µM, pH 7.4
Protocol: (§3) Mixtures contained MPO (1.2 nM), H2O2 (10 µM), NaCl (0.1 M), phosphate buffer (50 mM, pH 7.4), and the appropriate probe (20 µM). […] In the calculations the initial rates of probes oxidation were used. (Data are means ± standard deviation of three independent experiments).
MPO from human neutrophils was obtained from Athens Research and Technology (Athens, GA, According to the Certificate of Origin, the material used has been obtained from an FDA licensed collection center. Further the donors has given by signature full informed consent for the material to be used in commercial scientific research). […] Fluorescent probes were synthetized according to the procedures described in the literature. The synthesis of fluorescein pinacol boron ester (Fl-B) was performed based on the procedures published by Dickinson et al. and Rios et al.[58],[59]. The obtained boronate was then hydrolyzed to fluorescein boronic acid (FLBA). The synthesis of APF was performed based on the procedure published by Setsukinai and cooworkers. […] The detailed description of synthetic procedures can be found in the Supplementary Information. The CBA synthesis is described elsewhere[37],[61].
The lyophilized powder of MPO was dissolved in distilled water accordingly to the supplier recommendation and, if required, stored at 6 °C by the day of analysis. Such prepared solution was then diluted with phosphate buffer, pH 7.4, to the appropriate concentration and the volume of 0.5–2 µL/well depending on the activity was pipetted directly to 96-well plate (Costar 3840). […] Reactions were stared adding 100 µl/well of 20 µM hydrogen peroxide solution.

MPO [5] = target: T1, MPO; details: read-out: recommended average IC50 value; average of CBA, FLBA and NBD-TM probes
Protocol: as §3

[6] = Stability of fluorophores in the MPO/H2O2/Cl- system; assay type: physicochemical; details: fluorophore 5 µM, MPO 1.2 nM, H2O2 10 µM, NaCl 0.1 M, pH 7.4
Protocol: To check the stability of the COH, FL, and NBD-TSO fluorescence signal under the oxidizing conditions of MPO/H2O2/Cl^–, the fluorophores were incubated under the same reaction conditions, as described above for the five probes used in the study (Supplementary Figure S1). […] Overall, the fluorophores formed from the probes used may undergo consumption in the presence of MPO, H2O2 and Cl^–, due to their reaction with HOCl and/or via peroxidatic activity of MPO in the absence of Cl^–. This is, however, expected to occur only under the condition of excess of the oxidants (H2O2 and/or HOCl), as evidenced by the stable fluorescence signals of the products observed within 1 h of incubation (Fig. 3). The experimental design for monitoring HOCl involving probes producing such fluorophores should, therefore, take into account potential consumption of the fluorescent product, when the amount of the oxidant exceeds the probe availability.
as §1, §2
Supplementary Figure S2. The relationship used to determine the rate constant between APF and HOCl (a), or […] and HOCl (b), according to the competition kinetic approach. The solid lines in the panel (a) and (b) represent the linear fittings to the equation
1 = 1 + 1 kAPC/or APF [APC/orAPF]. In the case of reaction between […]
(2kFLBA+HOCl = 1,11 × 104 M-1s-1). In the case of APF, the samples contained APF (0 – 100 µM), HOCl (5 µM), and CBA (25 µM) as a reference compound (2kCBA+HOCl = 1,80 × 104 M-1s-1). The concentrations of COH and fluorescein were determined by LC/MS. […]

[7] = cited from earlier work
[8] = Effect of DMSO on HOCl-induced probe oxidation; assay type: physicochemical; details: 20 µM probe, 10 µM HOCl, pH 7.4
Source text: DMSO is a solvent well tolerated by cells and it is often used to dissolve organic compounds intended for cell culture studies. Most chemical libraries for HTS applications use DMSO as the solvent. However, DMSO reacts directly with HOCl with a second-order rate constant of 350 ± 40 M^−1s^−1 and it has been shown that it may interfere with oxidation of boronate probes by HOCl[49]. Thus, the influence of DMSO additive on the observed fluorescence signal generated in the reaction between HOCl and the studied probes was evaluated. In this experiment, the incubation mixtures contained the chosen probe (20 µM), phosphate buffer (50 mM, pH 7.4), and DMSO in the amounts between 0–5% v/v (0–0.7 M). The reaction with HOCl was initiated by the bolus addition of 1 mM sodium hypochlorite to obtain the final HOCl concentration of 10 µM. In the case of NBD-TM that reacts rapidly and stoichiometrically (1:1 ratio) with HOCl[44] about 10 µM of NBD-TSO was formed (Fig. 6). […] The presence of 0.5% v/v (0.07 M) or higher concentrations of DMSO was sufficient to completely scavenge HOCl and block the fluorescence increase.
Incubation mixtures contained 20 µM of a probe, 10 µM HOCl, 0–5% v/v (0–0.7 M) DMSO, and 50 mM phosphate buffer (pH 7.4). (Representative result of three independent experiments is shown. Points represent means ± S.D.)

- Z' value (MPO [1]): around 0.9
Compound: 7-(p-aminophenyl)-coumarin [APC]
- rate constant with HOCl by competition kinetics compared with stopped-flow value [2]: nearly identical rate constants

- Z' value (MPO [1]): around 0.9
- stability of stock solution [3]: stable at least one-month
Compound: Nc1ccc(Oc2ccc3c(-c4ccccc4C(=O)O)c4ccc(=O)cc-4oc3c2)cc1 [APF, 3’-(p-aminophenyl)-fluorescein]
- rate constant with HOCl by competition kinetics compared with stopped-flow value [2]: nearly identical rate constants

Compound: [N-]=[N+]=[N-] [Azide anion, sodium azide]
- IC50 (MPO [4]; APC probe 20 µM, NaCl 0.1 M): 1.94 µM
- IC50 (MPO [4]; APF probe 20 µM, NaCl 0.1 M): 2.37 µM
- IC50 (MPO [4]; Amplex Red 20 µM, no NaCl): 1.04 µM
- IC50 (MPO [4]; Amplex Red 20 µM, no NaCl, listed as N3^–): 1 µM
- IC50 (MPO [4]; CBA probe 20 µM, NaCl 0.1 M): 0.81 µM
- IC50 (MPO [4]; FLBA probe 20 µM, NaCl 0.1 M): 0.54 µM
- IC50 (MPO [4]; NBD-TM probe 20 µM, NaCl 0.1 M): 0.63 µM
- IC50 (MPO [5]): 0.7 µM

- Z' value (MPO [1]): around 0.9
- stability of stock solution [3]: stable at least one-month
Compound: O=c1ccc2ccc(B(O)O)cc2o1 [CBA, coumarin boronic acid]

- stability of the fluorescence signal [6]: decreasing with the time of incubation
Compound: O=c1ccc2ccc(O)cc2o1 [COH, 7-hydroxycoumarin]

Compound: C[S+](C)[O-] [DMSO]
- second-order rate constant of the reaction with HOCl [7]: 350 ± 40 M⁻¹ s⁻¹

- Z' value (MPO [1]): around 0.9
- stability of stock solution [3]: stable at least one-month
Compound: O=C(O)c1ccccc1-c1c2ccc(=O)cc-2oc2cc(B(O)O)ccc12 [FLBA, fluorescein boronic acid]

Compound: CSCC[C@H](N)C(=O)O [L-methionine]
- reaction rate constant with HOCl (^2k) [7]: 3.4e+07 M⁻¹ s⁻¹

Compound: O=[N+]([O-])c1ccc(N2CCSCC2)c2nonc12 [NBD-TM, 4-thiomorpholino-7-nitrobenz-2-oxa-1,3-diazole]
- Z' value (MPO [1]): around 0.7
- decrease of NBD-TSO concentration by DMSO ([8]; 0.5% (0.07 M) DMSO): about 5%
- decrease of NBD-TSO concentration by DMSO ([8]; 1% (0.14 M) DMSO): about 10%
- decrease of NBD-TSO concentration by DMSO ([8]; 5% (0.7 M) DMSO): ~35%

Compound: O=[N+]([O-])c1ccc(N2CC[S+]([O-])CC2)c2nonc12 [NBD-TSO]
- stability of the fluorescence signal [6]: slowly decomposing or precipitated during the time of incubation

Compound: O=C1OC2(c3ccc(O)cc3Oc3cc(O)ccc32)c2ccccc21 [fluorescein]
- stability of the fluorescence signal [6]: a slight decrease in the fluorescence intensity
